Laboratory results reported in patent publication US6376679B2, “Photoprotective/cosmetic compositions comprising novel benz-x-azole-substituted silane/siloxane sunscreens” (Societe L'Oreal S.A., priority 1997, dated 2002).
Values joined by “and” are separate entries in the source; they are usually repeats but may differ in a detail not shown here. Equal entries are not always repeated.

Experiment: UV absorption (ethanol)
Assay type: physicochemical
Conditions: UV spectrum in ethanol; for εmax: at the λmax of the same cell

Row | λmax | εmax | Structure (SMILES)
1 | 302 nm and 343 nm | 18,500 and 16,200 | C=C(C)Cc1cc(OC)cc(-c2nc3ccccc3[nH]2)c1O [2-(1H-benzimidazol-2-yl)-4-methoxy-6-(2-methyl-allyl)-phenol]
2 | 299 nm and 333 nm | 20,130 and 14,180 | C=C(C)Cc1cc(C)cc(-c2nc3ccccc3o2)c1O [2-benzoxazol-2-yl-4-methyl-6-(2-methyl-allyl)-phenol]

Row | Structure (SMILES) | λmax | εmax
3 | C[Si](C)(C)CCCOc1ccc(-c2nc3ccccc3[nH]2)c(O)c1 [Example 3] | 333 nm and 318 nm | 22,200 and 24,250
